How the values were obtained:
DENV-2 [1] = tested on: DENV-2
in vitro [2] = settings: Mesocricetus auratus (hamster)
DENV-2 [3] = assay: microbe, parasite or virus in culture; settings: Dengue virus, DENV2, BHK, read-out: DENV-2 EC50
CVB-5 = assay: microbe, parasite or virus in culture; format: cell-based, Coxsackievirus B5; settings: Enterovirus B, Vero 76, read-out: CVB-5 EC50
Sb-1 = assay: microbe, parasite or virus in culture; format: cell-based, Poliovirus type-1, Sabin strain; settings: Enterovirus C, Vero 76, read-out: Sb-1 EC50
VV = assay: microbe, parasite or virus in culture; format: cell-based; settings: Orthopoxvirus vaccinia, Vero 76, read-out: VV EC50
HSV-1 = assay: microbe, parasite or virus in culture; format: cell-based, human herpesvirus 1; settings: Human alphaherpesvirus 1, Vero 76, read-out: HSV-1 EC50
VSV = assay: microbe, parasite or virus in culture; format: cell-based; settings: Vesicular stomatitis virus, Vero 76, read-out: VSV EC50
YFV [4] = tested on: YFV
RSV [5] = tested on: RSV
in vitro [6] = settings: Bos taurus (cattle)
in vitro [7] = settings: Cercopithecus aethiops (monkey), Vero76 CC50
in vitro [8] = settings: human
YFV [9] = assay: microbe, parasite or virus in culture; settings: Yellow fever virus, BHK, read-out: YFV EC50
RSV [10] = assay: microbe, parasite or virus in culture; settings: human respiratory syncytial virus, Vero 76, read-out: RSV EC50
BVDV [11] = tested on: BVDV
BVDV [12] = assay: microbe, parasite or virus in culture; settings: Bovine viral diarrhea virus isolates and strains, MDBK, read-out: BVDV EC50

Clc1ccc(-c2nn(-c3ccccc3)cc2CNc2ccc(Br)cc2)cc1 [1d]
SI CC50/EC50 (DENV-2) (DENV-2 [1]): >9.1
CC50 (in vitro [2]): > 100 µM
EC50 (DENV-2 [3]): 11 ± 0.4 µM

O=S(=O)(c1ccccc1)n1cc(CNc2ccc(Br)cc2)c(-c2ccc(Br)cc2)n1 [7g, 4-Bromo-N-[(3-(4-bromophenyl)-1-(phenylsulfonyl)-1H-pyrazol-4-yl)methyl]aniline]
EC50 (CVB-5): > 90 µM
EC50 (Sb-1): > 90 µM
EC50 (VV): > 90 µM
EC50 (HSV-1): > 90 µM
EC50 (VSV): > 90 µM
melting point: 150 to 151 °C
SI CC50/EC50 (YFV) (YFV [4]): >16.1
SI CC50/EC50 (RSV) (RSV [5]): 5.7
CC50 (in vitro [2]): > 100 µM
CC50 (in vitro [6]): > 100 µM
CC50 (in vitro [7]): 90 ± 1 µM
CC50 (in vitro [8]): > 100 µM
EC50 (YFV [9]): 6.2 ± 0.5 µM
EC50 (RSV [10]): 15.8 ± 2 µM

NC(=O)c1ncn([C@@H]2O[C@H](CO)[C@@H](O)[C@H]2O)n1 [Ribavirin, reference compound]
SI CC50/EC50 (BVDV) (BVDV [11]): 3.4
SI CC50/EC50 (RSV) (RSV [5]): >2.7
CC50 (in vitro [6]): 55 ± 7 µM
CC50 (in vitro [7]): > 100 µM
EC50 (BVDV [12]): 16 ± 2 µM
EC50 (RSV [10]): 37.5 ± 2.5 µM

Cc1ccc(-c2nn(-c3ccccc3)cc2CNc2ccc(Cl)cc2)cc1 [1k]
SI CC50/EC50 (DENV-2) (DENV-2 [1]): >8.3
CC50 (in vitro [2]): > 100 µM
EC50 (DENV-2 [3]): 12.1 ± 3 µM

COc1ccc(S(=O)(=O)n2cc(CNc3ccccc3)c(-c3ccc(Br)cc3)n2)cc1 [8a]
melting point: 131 to 134 °C
CC50 (in vitro [2]): > 100 µM
CC50 (in vitro [6]): > 100 µM
CC50 (in vitro [7]): > 100 µM
CC50 (in vitro [8]): > 100 µM
EC50 (BVDV [12]): 5.6 ± 0.8 µM

COc1ccc(S(=O)(=O)n2cc(CNc3ccc(Br)cc3)c(-c3ccc(Cl)cc3)n2)cc1 [8g, 4-Bromo-N-[(3-(4-chlorophenyl)-1-((4-methoxyphenyl)sulfonyl)-1H-pyrazol-4-yl)methyl]aniline]
melting point: 169 to 171 °C
SI CC50/EC50 (BVDV) (BVDV [11]): >8.1
SI CC50/EC50 (YFV) (YFV [4]): >5.4
CC50 (in vitro [2]): > 100 µM
CC50 (in vitro [6]): > 100 µM
CC50 (in vitro [7]): > 100 µM
CC50 (in vitro [8]): > 100 µM
EC50 (BVDV [12]): 12.4 ± 0.8 µM
EC50 (YFV [9]): 18.6 ± 0.8 µM

Cc1ccc(NCc2cn(-c3ccccc3)nc2-c2ccccc2)cc1 [1m]
SI CC50/EC50 (DENV-2) (DENV-2 [1]): >8.9
CC50 (in vitro [2]): > 100 µM
EC50 (DENV-2 [3]): 11.2 ± 3.6 µM

Cc1ccc(-c2nn(-c3ccccc3)cc2CNc2ccccc2)cc1 [1a]
SI CC50/EC50 (DENV-2) (DENV-2 [1]): >3.3
CC50 (in vitro [2]): > 100 µM
EC50 (DENV-2 [3]): 30 ± 4 µM

O=S(=O)(c1ccccc1)n1cc(CNc2ccc(Cl)cc2)c(-c2ccccc2)n1 [7b, 4-Chloro-N-[(3-phenyl-1-(phenylsulphonyl)-1H-pyrazol-4-yl)methyl]aniline]
EC50 (CVB-5): 20 ± 5 µM
EC50 (Sb-1): > 80 µM
EC50 (VV): > 80 µM
EC50 (HSV-1): > 80 µM
EC50 (VSV): > 80 µM
melting point: 136 to 137 °C
SI CC50/EC50 (YFV) (YFV [4]): >12.3
CC50 (in vitro [2]): > 100 µM
CC50 (in vitro [6]): > 100 µM
CC50 (in vitro [8]): > 100 µM
EC50 (YFV [9]): 8.1 ± 1.3 µM

Cc1ccc(NCc2cn(S(=O)(=O)c3ccccc3)nc2-c2ccc(Br)cc2)cc1 [7h, 4-Methyl-N-[(3-(4-bromophenyl)-1-(phenylsulfonyl)-1H-pyrazol-4-yl)methyl]aniline]
EC50 (CVB-5): > 93 µM
EC50 (Sb-1): > 93 µM
EC50 (VV): > 93 µM
EC50 (HSV-1): > 93 µM
EC50 (VSV): > 93 µM
melting point: 112 °C
SI CC50/EC50 (YFV) (YFV [4]): >20.4
SI CC50/EC50 (RSV) (RSV [5]): 7.4
CC50 (in vitro [2]): > 100 µM
CC50 (in vitro [6]): > 100 µM
CC50 (in vitro [7]): 93 ± 0.5 µM
CC50 (in vitro [8]): > 100 µM
EC50 (YFV [9]): 4.9 ± 0.9 µM
EC50 (RSV [10]): 12.5 ± 2.5 µM

COc1ccc(S(=O)(=O)n2cc(CNc3ccc(Cl)cc3)c(-c3ccc(Cl)cc3)n2)cc1 [8f, 4-Chloro-N-[(3-(4-chlorophenyl)-1-((4-methoxyphenyl)sulfonyl)-1H-pyrazol-4-yl)methyl]aniline]
melting point: 158 to 159 °C
SI CC50/EC50 (BVDV) (BVDV [11]): >12.7
SI CC50/EC50 (YFV) (YFV [4]): >6.25
CC50 (in vitro [2]): > 100 µM
CC50 (in vitro [6]): > 100 µM
CC50 (in vitro [7]): > 100 µM
CC50 (in vitro [8]): > 100 µM
EC50 (BVDV [12]): 7.9 ± 0.8 µM
EC50 (YFV [9]): 16 ± 0.7 µM

COc1ccc(S(=O)(=O)n2cc(CNc3ccc(Br)cc3)c(-c3ccc(C)cc3)n2)cc1 [8k]
melting point: 151 to 153 °C
SI CC50/EC50 (BVDV) (BVDV [11]): >5.1
CC50 (in vitro [2]): > 100 µM
CC50 (in vitro [6]): > 100 µM
CC50 (in vitro [7]): > 100 µM
CC50 (in vitro [8]): > 100 µM
EC50 (BVDV [12]): 19.5 ± 1.4 µM

O=S(=O)(c1ccccc1)n1cc(CNc2ccc(Cl)cc2)c(-c2ccc(Cl)cc2)n1 [7j, 4-Cloro-N-[(3-(4-chlorophenyl)-1-(phenylsulfonyl)-1H-pyrazol-4-yl)methyl]aniline]
melting point: 142 to 143 °C
SI CC50/EC50 (BVDV) (BVDV [11]): >2.3
SI CC50/EC50 (YFV) (YFV [4]): >22.7
SI CC50/EC50 (RSV) (RSV [5]): >11.8
CC50 (in vitro [2]): > 100 µM
CC50 (in vitro [6]): > 100 µM
CC50 (in vitro [7]): > 100 µM
CC50 (in vitro [8]): > 100 µM
EC50 (BVDV [12]): 43.3 ± 1.1 µM
EC50 (YFV [9]): 4.4 ± 0.4 µM
EC50 (RSV [10]): 8.5 ± 0.5 µM

Clc1ccc(NCc2cn(-c3ccccc3)nc2-c2ccccc2)cc1 [1h]
SI CC50/EC50 (DENV-2) (DENV-2 [1]): >7.7
CC50 (in vitro [2]): > 100 µM
EC50 (DENV-2 [3]): 13 ± 5 µM

COc1c(C)c2c(c(O)c1C/C=C(\C)CCC(=O)O)C(=O)OC2 [M 5255, Mycophenolic acid, reference compound]
EC50 (VV): 2 ± 0.1 µM
CC50 (in vitro [7]): 20 ± 0.3 µM

COc1ccc(S(=O)(=O)n2cc(CNc3ccc(Cl)cc3)c(-c3ccc(Br)cc3)n2)cc1 [8b, 4-Chloro-N-[(3-(4-bromophenyl)-1-((4-methoxphenyl)sulfonyl)-1H-pyrazol-4-yl)methyl]aniline]
melting point: 153 to 154 °C
SI CC50/EC50 (BVDV) (BVDV [11]): >5.0
SI CC50/EC50 (YFV) (YFV [4]): >4.6
CC50 (in vitro [2]): > 100 µM
CC50 (in vitro [6]): > 100 µM
CC50 (in vitro [7]): > 100 µM
CC50 (in vitro [8]): > 100 µM
EC50 (BVDV [12]): 20 ± 1.4 µM
EC50 (YFV [9]): 21.6 ± 0.8 µM

Nc1nc2c(ncn2COCCO)c(=O)[nH]1 [ACG, Acyclovir, reference compound]
EC50 (HSV-1): 2.9 ± 0.1 µM
CC50 (in vitro [7]): > 100 µM

Clc1ccc(NCc2cn(-c3ccccc3)nc2-c2ccc(Br)cc2)cc1 [1l]
SI CC50/EC50 (DENV-2) (DENV-2 [1]): >7.8
CC50 (in vitro [2]): > 100 µM
EC50 (DENV-2 [3]): 12.9 ± 2.3 µM

Cc1cc(CCCOc2c(C)cc(-c3noc(C(F)(F)F)n3)cc2C)on1 [Pleconaril, reference compound]
EC50 (CVB-5): 0.0025 ± 0.0005 µM
EC50 (Sb-1): 2 ± 0.1 µM
CC50 (in vitro [7]): 70 ± 1 µM

Brc1ccc(-c2nn(-c3ccccc3)cc2CNc2ccccc2)cc1 [1b]
SI CC50/EC50 (DENV-2) (DENV-2 [1]): >4.5
CC50 (in vitro [2]): > 100 µM
EC50 (DENV-2 [3]): 22 ± 6 µM

COc1ccc(S(=O)(=O)n2cc(CNc3ccc(Br)cc3)c(-c3ccc(Br)cc3)n2)cc1 [8c, 4-Bromo-N-[(3-(4-bromophenyl)-1-((4-methoxphenyl)sulfonyl)-1H-pyrazol-4-yl)methyl]aniline]
melting point: 162 to 164 °C
SI CC50/EC50 (BVDV) (BVDV [11]): >4.4
CC50 (in vitro [2]): > 100 µM
CC50 (in vitro [6]): > 100 µM
CC50 (in vitro [7]): > 100 µM
CC50 (in vitro [8]): > 100 µM
EC50 (BVDV [12]): 23 ± 3.5 µM
EC50 (YFV [9]): > 100 µM
